Key:
oval-leafed pondweed = test: Test Example 1: herbicidal activity, application before weed generation under submerged conditions (Table 16, symbol C); type: in vivo, oval-leafed pondweed (Monochoria vaginalis)
Description: [Test Example 1] Herbicidal Activity Test by Application before Weed Generation under Submerged Conditions After alluvial soil was placed into 1/10000 are of Wagner pot, water was poured and mixed to form a submerged condition having a water depth of 4 cm. Seeds of late watergrass, Japanese bulrush, and oval-leafed pondweed were sowed in a mixed manner in the aforementioned pot, and then 2.5 leaf stage rice plant seedlings were transplanted thereto. On the day of sowing seeds, the emulsion agent of the compound of the present invention prepared according to Formulation Example 2 was diluted with water so as to achieve a predetermined herbicide amount, and the diluted emulsion agent was applied to the surface of the water. The pot was placed in a greenhouse at 25° C. to 30° C. for growth of the plants. Three weeks after the herbicide application, the effect of the herbicide on each plant was evaluated according to the following criteria. Evaluation Criteria 5: Herbicidal rate of 90% or more (almost completely withered) 4: Herbicidal rate of 70% or more and less than 90% 3: Herbicidal rate of 40% or more and less than 70% 2: Herbicidal rate of 20% or more and less than 40% 1: Herbicidal rate of 5% or more and less than 20% 0: Herbicidal rate of 5% or less (almost no effect)

barnyard grass [1] = test: Test Example 3: herbicidal effect by foliage application, Wagner pot (Table 18, symbol H); type: in vivo, barnyard grass (Echinochloa crus-galli)
Outline: (§1)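 Plants were sown in alluvial soil held under 0.1–0.5 cm standing water and grown 14 days in a greenhouse at 25–30 °C. An emulsifiable formulation, water-diluted to the set dose, was then sprayed onto the foliage, and effects were scored three weeks later using previously defined criteria.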

late watergrass = test: Test Example 1: herbicidal activity, application before weed generation under submerged conditions (Table 16, symbol A); type: in vivo, late watergrass (Echinochloa oryzicola)
Outline: (§2)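 Alluvial soil was flooded to 4 cm depth, weed seeds were sown mixed and 2.5-leaf rice seedlings were transplanted. On sowing day, the compound's emulsion, diluted in water to a set dose, was applied to the water surface. Plants grew at 25–30 °C and were scored 0–5 after three weeks.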

Chinese sprangletop = test: Test Example 3: herbicidal effect by foliage application, Wagner pot (Table 18, symbol D); type: in vivo, chinese sprangletop (Leptochloa chinensis)
Outline: as §1

rice flat sedge = test: Test Example 3: herbicidal effect by foliage application, Wagner pot (Table 18, symbol E); type: in vivo, rice flat sedge (Cyperus iria)
Outline: as §1

Japanese bulrush = test: Test Example 1: herbicidal activity, application before weed generation under submerged conditions (Table 16, symbol B); type: in vivo, Japanese bulrush (Schoenoplectus juncoides)
Outline: as §2

southern crabgrass = test: Test Example 5: herbicidal effect by foliage application, plastic box (Table 20, symbol F); type: in vivo, southern crabgrass (Digitaria ciliaris); details: foliage application, AAH 320 g/ha, evaluated three weeks after application
Outline: (§3)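 Plants were sown into sterilized diluvial soil under about 1.5 cm cover and kept in a greenhouse at 25° C. to 30° C. Fourteen days on, foliage received an even spray of the diluted emulsion. Herbicidal or crop effect was judged three weeks afterwards.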

windgrass = test: Test Example 5: herbicidal effect by foliage application, plastic box (Table 20, symbol L); type: in vivo, windgrass (Apera spica-venti); details: foliage application, AAH 320 g/ha, evaluated three weeks after application
Outline: as §3

redroot pigweed = test: Test Example 5: herbicidal effect by foliage application, plastic box (Table 20, symbol N); type: in vivo, redroot pigweed (Amaranthus retroflexus); details: foliage application, AAH 320 g/ha, evaluated three weeks after application
Outline: as §3

persian speedwell = test: Test Example 5: herbicidal effect by foliage application, plastic box (Table 20, symbol R); type: in vivo, Persian speedwell (Veronica persica); details: foliage application, AAH 320 g/ha, evaluated three weeks after application
Outline: as §3

barnyard grass [2] = test: Test Example 5: herbicidal effect by foliage application, plastic box (Table 20, symbol H); type: in vivo, barnyard grass (Echinochloa crus-galli); details: foliage application, AAH 320 g/ha, evaluated three weeks after application
Outline: as §3

green foxtail = test: Test Example 5: herbicidal effect by foliage application, plastic box (Table 20, symbol G); type: in vivo, green foxtail (Setaria viridis); details: foliage application, AAH 320 g/ha, evaluated three weeks after application
Outline: as §3

wild oat = test: Test Example 5: herbicidal effect by foliage application, plastic box (Table 20, symbol I); type: in vivo, wild oat (Avena fatua); details: foliage application, AAH 320 g/ha, evaluated three weeks after application
Outline: as §3

blackgrass = test: Test Example 5: herbicidal effect by foliage application, plastic box (Table 20, symbol J); type: in vivo, blackgrass (Alopecurus myosuroides); details: foliage application, AAH 320 g/ha, evaluated three weeks after application
Outline: as §3

lambsquarters = test: Test Example 5: herbicidal effect by foliage application, plastic box (Table 20, symbol O); type: in vivo, lambsquarters (Chenopodium album); details: foliage application, AAH 320 g/ha, evaluated three weeks after application
Outline: as §3

Italian ryegrass = test: Test Example 5: herbicidal effect by foliage application, plastic box (Table 20, symbol K); type: in vivo, Italian ryegrass (Lolium multiflorum); details: foliage application, AAH 320 g/ha, evaluated three weeks after application
Outline: as §3

velvetleaf = test: Test Example 5: herbicidal effect by foliage application, plastic box (Table 20, symbol M); type: in vivo, velvetleaf (Abutilon theophrasti); details: foliage application, AAH 320 g/ha, evaluated three weeks after application
Outline: as §3

[3] = amount of applied herbicide 224 g/ha
[4] = amount of applied herbicide 320 g/ha

## Cc1nn(C)c(=O)c(-c2c(-c3cccc(OCC(F)(F)F)c3)sc3ccc(F)cc23)c1O [2-238]
oval-leafed pondweed; 224 g/ha applied herbicide
  Herbicidal effect on C: oval-leafed pondweed (grade 0-5): 0 (Herbicidal rate of 5% or less (almost no effect))
Barnyard grass [1]; [3]
  herbicidal effect on H: barnyard grass: 3 (Herbicidal rate of 40% or more and less than 70%)
Late watergrass; 224 g/ha applied herbicide
  Herbicidal effect on A: late watergrass (grade 0-5): 3 (Herbicidal rate of 40% or more and less than 70%)
Chinese sprangletop; [3]
  herbicidal effect on D: Chinese sprangletop: 2 (Herbicidal rate of 20% or more and less than 40%)
Rice flat sedge; [3]
  herbicidal effect on E: rice flat sedge: 3 (Herbicidal rate of 40% or more and less than 70%)
Japanese bulrush; 224 g/ha applied herbicide
  Herbicidal effect on B: Japanese bulrush (grade 0-5): 0 (Herbicidal rate of 5% or less (almost no effect))

## CSCCOc1cccc(-c2sc3ccc(F)cc3c2-c2c(O)c(C)nn(C)c2=O)c1 [2-273]
oval-leafed pondweed; 320 g/ha applied herbicide
  Herbicidal effect on C: oval-leafed pondweed (grade 0-5): 0 (Herbicidal rate of 5% or less (almost no effect))
Southern crabgrass
  F: southern crabgrass, herbicidal effect (criteria 0-5): 0 (Herbicidal rate of 5% or less (almost no effect))
windgrass
  L: windgrass, herbicidal effect (criteria 0-5): 0 (Herbicidal rate of 5% or less (almost no effect))
Redroot pigweed
  N: redroot pigweed, herbicidal effect (criteria 0-5): 2 (Herbicidal rate of 20% or more and less than 40%)
Late watergrass; 320 g/ha applied herbicide
  Herbicidal effect on A: late watergrass (grade 0-5): 3 (Herbicidal rate of 40% or more and less than 70%)
Persian speedwell
  R: persian speedwell, herbicidal effect (criteria 0-5): 4 (Herbicidal rate of 70% or more and less than 90%)
Barnyard grass [2]
  H: barnyard grass, herbicidal effect (criteria 0-5): 0 (Herbicidal rate of 5% or less (almost no effect))
Green foxtail
  G: green foxtail, herbicidal effect (criteria 0-5): 0 (Herbicidal rate of 5% or less (almost no effect))
Wild oat
  I: wild oat, herbicidal effect (criteria 0-5): 0 (Herbicidal rate of 5% or less (almost no effect))
blackgrass
  J: blackgrass, herbicidal effect (criteria 0-5): 0 (Herbicidal rate of 5% or less (almost no effect))
Japanese bulrush; 320 g/ha applied herbicide
  Herbicidal effect on B: Japanese bulrush (grade 0-5): 0 (Herbicidal rate of 5% or less (almost no effect))
lambsquarters
  O: lambsquarters, herbicidal effect (criteria 0-5): 0 (Herbicidal rate of 5% or less (almost no effect))
Italian ryegrass
  K: Italian ryegrass, herbicidal effect (criteria 0-5): 1 (Herbicidal rate of 5% or more and less than 20%)
velvetleaf
  M: velvetleaf, herbicidal effect (criteria 0-5): 0 (Herbicidal rate of 5% or less (almost no effect))

## Cc1nn(C)c(=O)c(-c2c(-c3cc(C(F)(F)F)cc(C(F)(F)F)c3)sc3ccc(F)cc23)c1O [2-358]
oval-leafed pondweed; 320 g/ha applied herbicide
  Herbicidal effect on C: oval-leafed pondweed (grade 0-5): 0 (Herbicidal rate of 5% or less (almost no effect))
Barnyard grass [1]; [4]
  herbicidal effect on H: barnyard grass: 3 (Herbicidal rate of 40% or more and less than 70%)
Late watergrass; 320 g/ha applied herbicide
  Herbicidal effect on A: late watergrass (grade 0-5): 3 (Herbicidal rate of 40% or more and less than 70%)
Chinese sprangletop; [4]
  herbicidal effect on D: Chinese sprangletop: 1 (Herbicidal rate of 5% or more and less than 20%)
Rice flat sedge; [4]
  herbicidal effect on E: rice flat sedge: 3 (Herbicidal rate of 40% or more and less than 70%)
Japanese bulrush; 320 g/ha applied herbicide
  Herbicidal effect on B: Japanese bulrush (grade 0-5): 0 (Herbicidal rate of 5% or less (almost no effect))
